Test results as given in patent US8741929B2, “Methods using 3-(4-amino-1-oxo-1,3-dihydro-isoindol-2-yl)-piperidine-2,6-dione for treatment of mantle cell lymphomas” (Celgene Corporation, priority 2006, dated 2014).
Values joined by “and” are separate entries in the source; they are usually repeats but may differ in a detail not shown here. Equal values may be shown once.

Tests used:
[1] = test system: relapsed or refractory mantle cell lymphoma (MCL)
Procedure: A single-center, open label, phase I/II study was conducted to determine the maximum tolerated dose (MTD) and to evaluate the efficacy of 3-(4-amino-1-oxo-1,3-dihydro-isoindol-2-yl)-piperidin-2,6-dione (lenalidomide or Revlimid®) in combination with rituximab for relapsed or refractory mantle cell lymphoma (MCL). Patients with one to four lines of prior therapy were eligible. Patients with prior treatment using thalidomide or rituximab, regardless of resistance, were eligible. […] A standard phase I dose escalation was used to determine MTD with dose levels at 10 mg, 15 mg, 20 mg, and 25 mg of Revlimid®. Dose-limiting toxicity (DLT) was defined as grade 3 or 4 non-hematologic or grade 4 hematologic toxicity during the first cycle.
Each cohort had 3 patients. […] The number of cycles given ranged from one to five cycles.

[2] = test system: relapsed and refractory aggressive non-Hodgkin's lymphoma (NHL); assay: Phase II study of oral lenalidomide monotherapy in patients; assay type: in vivo, human
Procedure: A multi-center, open-label, Phase II study was conducted in patients with relapsed and refractory aggressive non-Hodgkin's lymphoma (NHL). […] Patients in the study received lenalidomide in an amount of 25mg orally once daily for days one to 21 in a 28-day cycle and continued therapy for 52 weeks as tolerated or until disease progression.
Twenty-five patients age 45 to 80 years (median age 63), with relapsed and refractory aggressive NHL, and who had received a median of 2.5 prior treatments (range: 1-6 prior treatments), were administered with lenalidomide in an amount of 25 mg orally once daily for 21 days in the treatment cycle. Sixteen patients with aggressive NHL were evaluable for tumour assessment. Of the 16 patients, eight had diffuse large cell lymphoma, three had mantle cell lymphoma, two patients had follicular lymphoma, one had transformed lymphoma, and two had aggressive lymphoma of unknown histology.

[3] = first cycle, + rituximab, number of patients/events
[4] = 25 mg daily, 21/28 days, 16 evaluable patients
[5] = 25 mg orally once daily days 1-21 of 28-day cycle, 16 evaluable patients

Nc1cccc2c1CN(C1CCC(=O)NC1=O)C2=O (centres unmarked) [Revlimid®, 3-(4-amino-1-oxo-1,3-dihydro-isoindol-2-yl)-piperidine-2,6-dione]
stable disease ([1]; at cycle 3 and cycle 5, respectively, + rituximab, seven evaluable): Two
maximum tolerated dose (MTD) ([1]; dose levels up to 20 mg Revlimid + rituximab 375 mg/m^2 weekly): the MTD has not been reached
grade 3 toxicity (thrombocytopenia) beyond the first cycle ([1]; during cycle 2, + rituximab, number of events): 1
grade 2 anemia ([1]; first cycle, + rituximab): one
Grade 1 hematologic events: anemia [1, 3]: 1
Grade 1 hematologic events: leukopenia [1, 3]: 3
Grade 1 hematologic events: thrombocytopenia [1, 3]: 2
Grade 1 non-hematologic toxic events: fatigue [1, 3]: 4
Grade 1 non-hematologic toxic events: myalgias [1, 3]: 2
Grade 1 non-hematologic toxic events: pruritis [1, 3]: 3
Grade 1 non-hematologic toxic events: stomatitis [1, 3]: 3
Grade 2 non-hematologic toxic events: myalgias [1, 3]: 2
Grade 2 non-hematologic toxic events: rash [1, 3]: 2
study conclusion on efficacy ([1]; particularly relapsed or refractory mantle cell lymphoma): effective in treating mantle cell lymphoma
complete response [2, 4]: One
partial responses [2, 4]: four
stable disease [2, 4]: Four
Grade 4 adverse reaction ([2]; 25 mg daily, 21/28 days, of 22 patients): three
Grade 3 and 4 adverse events ([2]; 25 mg daily, 21/28 days, predominately haematological and Grade 3): ten of 22
objective responses [2, 5]: five
objective responses (rate) [2, 5]: 31 per cent
disease progression ([2]; after a median follow-up of two months (range one to seven months)): Seven
progression free survival ([2]; one patient with diffuse large cell lymphoma, complete response): more than 180 days
progression free survival ([2]; one patient with follicular lymphoma, partial response): more than 55 days
progression free survival ([2]; one patient with mantle cell lymphoma, partial response): more than 57 days
progression free survival ([2]; single patients with diffuse large cell lymphoma, partial response, listed as lenalidomide): 135 days and 242 days
